Data taken from patent US20110086797A1, “CONTROL OF SPORE GERMINATION” (priority 2007, published 2011).
Entries after “also recorded” stand apart in the source; their conditions may differ. Where two headings read alike, the source gives them in different places.

Columns and labels:
B. subtilis spores [1] = experiment: Measurement of germination by loss of heat resistance; assay type: cell-based, Bacillus subtilis
B. subtilis spores [2] = experiment: Measurement of germination by fluorescence (Syto-9 dye); assay type: cell-based, Bacillus subtilis; settings: 1 μM Bryostatin
[3] = system: B. subtilis wild type spores; experiment: Sensitivity to antibiotic (tetracycline) after stimulation of germination; settings: for % Loss in viable cells: germinant 60 min at 37° C. (muropeptide 40 μM, bryostatin 1 μM), then tetracycline 10 μg/ml 60 min, relative to no germinant

CC(=O)N[C@H]1C(O)O[C@H](CO)[C@@H](O)[C@@H]1O[C@H](C)C(=O)N[C@@H](C)C(=O)N[C@H](CCC(=O)O)C(N)=O (mixture of isomers) [muramyl dipeptide] was tested, and the “germination of wild type spores (result in words)” value (from here on “germination of wild type spores”) (B. subtilis spores [1]) was “failed to induce germination”.
CCC/C=C/C=C/C(=O)O[C@H]1/C(=C/C(=O)OC)C[C@H]2C[C@H]([C@@H](C)O)OC(=O)C[C@H](O)C[C@@H]3C[C@H](OC(C)=O)C(C)(C)[C@](O)(C[C@@H]4C/C(=C/C(=O)OC)C[C@H](/C=C/C(C)(C)[C@]1(O)O2)O4)O3 [Bryostatin] was tested, and the “germination of ΔprkC spores (result in words)” value (“germination of ΔprkC spores” for short) (B. subtilis spores [1]) was “had no effect”, the maximum % germination (B. subtilis spores [1]; […], 1.0 μM bryostatin, 60 min) was ~40% and the “Fluorescence Germination Results” value (B. subtilis spores [2]; Wild-type spores, 5' at 37° C., excitation/emission 485/530) was 14331. The “Fluorescence Germination Results” value (B. subtilis spores [2]; ΔprKC (kinase mutant) spores, 5' at 37° C., 485/530) was 5208, the “Fluorescence Germination Results” value (B. subtilis spores [2]; ΔprpC (phosphatase mutant) spores, 5' at 37° C., 485/530) was 13183 and the “Fluorescence Germination Results” value (B. subtilis spores [2]; ΔprpC, PrpC (phosphatase mutant overexpressing phosphatase from an ectopic site) spores, 485/530) was 5529. For the same compound, the “% Loss in viable cells” value [3] was 32 ± 7% and the “sensitivity of treated spores to antibiotics (result in words)” value ([3]; wild type B. subtilis spores, tetracycline and spectinomycin) was “become sensitive to the ribosomal antibiotics tetracycline and spectinomycin”.
With O=C([O-])c1cccc(C(=O)[O-])n1.[Ca+2] [Ca^2+-dipicolinic acid] the “germination of ΔprkC spores” value (B. subtilis spores [1]) was “still responded”.
For C[C@@H](N)C(=O)O [D-alanine], the “inhibition of cell wall / peptidoglycan dependent germination (result in words)” value (B. subtilis spores [1]) was “did not block cell wall dependent germination”.
In the case of C[C@H](N)C(=O)O [L-alanine], the “germination of ΔprkC spores” value (B. subtilis spores [1]) is reported as “still responded” and the “germination of ΔprkC spores” value (B. subtilis spores [1]; listed as alanine) is reported as “still respond to alanine”.
In the case of CCCCCCCCCCCCCC(=O)O[C@@H]1[C@@H](C)[C@@]2(O)[C@@H](C=C(CO)C[C@]3(O)C(=O)C(C)=C[C@@H]23)[C@@H]2C(C)(C)[C@]12OC(C)=O [PMA, phorbol-12-myristate-13-acetate], the “germination of wild type spores” value (B. subtilis spores [1]) is reported as “chemically induces germination”.
With CN[C@@H]1C[C@H]2O[C@@](C)([C@@H]1OC)n1c3ccccc3c3c4c(c5c6ccccc6n2c5c31)C(=O)NC4 [staurosporine] the “germination with increasing amounts of peptidoglycan in the presence of inhibitor” value (B. subtilis spores [1]; 10 pM staurosporine, […]) was “did not increase germination”, the “concentration as low as which significantly reduced peptidoglycan-dependent germination” value (B. subtilis spores [1]; […], 100 ng/ml B. subtilis peptidoglycan, 60 min) was 10 pM and the “effect on L-alanine germination” value (B. subtilis spores [1]; data not shown) was “unaffected”.
For Ala-D-γ-Glu-Dpm tripeptide, the “germination of wild type spores” value (B. subtilis spores [1]; wild type B. subtilis spores) was “failed to induce germination”.
With GlcNAc-MurNAc tripeptide [Muropeptide] the “concentration as low as which led to germination” value (B. subtilis spores [1]) was 1 µM, the “germination of ΔprkC spores” value (B. subtilis spores [1]) was “failed to germinate” and the “% Loss in viable cells” value [3] was 72 ± 3%.
For Teleocidin, the “germination of wild type spores” value (B. subtilis spores [1]) was “able to stimulate germination of only the wildtype spore; also recorded: stimulated germination of wildtype spores” and the “germination of ΔprkC spores” value (B. subtilis spores [1]) was “able to stimulate germination of only the wildtype spore”.
